According to patent US20150064289A1, “Raw Extract of a Sechium Edule Hybrid, Method for Extracting Same and Use Thereof for Formulations Having an Antineoplastic Effect” (priority 2012, published 2015):

How the values were obtained:
[1] = tested on: K-562; assay: Cell viability by trypan blue exclusion, K-562; type: cell-based; settings: K562
Method: On the other hand, the cell viability was evaluated in order to determine that the extract only acts against tumor cells, for which purpose tumor cells were cultured for 72 hours under the above conditions in quantities of 200 μL of medium per well in 96-well, flat bottom, ultra-low adherence plates (Costar, Cambridge, Mass., USA) with various doses of extract.

[2] = tested on: L929; assay: Apoptotic bodies by morphology (Giemsa), L929; type: cell-based, mouse; settings: 48 hrs, Ara-C 5 μg/mL, mean ± standard deviation
Method: (§1) Once elapsed that time, cells were collected and placed on a slide; then were fixed with 1 mL of methanol and stained for 20 minutes with 10% Giemsa stain. Cells were observed under a microscope (Cari Zeiss, Primo Star, Germany) equipped with 100× objective lens. Morphological changes like decreased cell volume, chromatin condensation, loss of cell membrane regularity, were cytomorphological parameters evaluated in the formation of apoptotic bodies. 200 cells of each experiment were counted to obtain the percentage of normal and apoptotic cells.

[3] = tested on: WEHI-3; assay: Apoptosis induction through DNA fragmentation (agarose gel); settings: WEHI-3 grown 48 hours, extract at IC50, FIG. 3
Method: Apoptosis induction was evaluated through DNA fragmentation.

[4] = tested on: WEHI-3; assay: Apoptotic bodies by morphology (Giemsa), WEHI-3; type: cell-based, mouse; settings: 48 hrs, Ara-C 5 μg/mL, mean ± standard deviation
Method: as §1

[5] = tested on: normal bone marrow cells; assay: Proliferation of normal bone marrow cells, crystal violet technique; type: cell-based; settings: normal mouse bone marrow cells; 5 µg/mL of citarabine; 5 days
Method: To determine the effect of the extract of Sechium edule hybrid named MH-387-07-GISeM” on tumor cells, HeLa cell lines, which are derived from adenocarcinoma of […] cervical epithelial tissue; cell line L929 derived from male mouse's fibrosarcoma of areolar and adipose subcutaneous connective […] tissue, WEHI-3 y K562 are lines derived from leukemia (liquid tumors) which are maintained in IMDM culture medium (Iscove's Modified Dulbecco's Medium). Tumor cells were cultured for 72 hours in 200 μL of culture medium and serum containing 0.0, 0.15, 0.3, 0.6, 1.2, 2.5 and 5 μg/mL of extract, and were evaluated by the crystal violet technique (FIG. 1). Cells were maintained in culture for 5 days after being stimulated with diverse doses of extract or Ara-C as a control (5 μM), and were evaluated by the crystal violet technique, FIG. 1, where a dose-response curve of the effect of H-387-07-GISeM extract on cell proliferation of lines EHI-3, HeLa, L929, and bone marrow cells was plotted. Values are the average of three tests with tree replicates. Lines above the bars indicate±standard deviation. * Significant difference (p<0.05) compared to control. […] On the other hand, normal bone marrow cells of mouse treated with […] achieve a proliferation of 60% compared to the control, but with 5 µg/mL of citarabine (Ara-c) it only reaches a 35%.

[6] = tested on: HeLa; assay: Apoptotic bodies by morphology (Giemsa), HeLa; type: cell-based, human; settings: 48 hrs, Ara-C 5 μg/mL, mean ± standard deviation
Method: as §1

In the case of `Nc1ccn([C@@H]2O[C@H](CO)[C@@H](O)[C@@H]2O)c(=O)n1` [Ara-C, citarabine], the effect on viability ([1]; Ara-c as worded in text) was “totally does so”, the “% Apoptotic bodies” value [2] was 6 ± 1.4% and the DNA fragmentation [3] was “experiences DNA fragmentation”. The “% Apoptotic bodies” value [4] was 61.5 ± 8.2%, the “proliferation compared to the control” value [5] was 35% and the “% Apoptotic bodies” value [6] was 21 ± 0%.

In the case of `Cc1ccc(NC(=O)c2ccc(CN3CCN(C)CC3)cc2)cc1Nc1nccc(-c2cccnc2)n1` [imatinib], the viability at 1 µM ([1]; Homo sapiens, K-562, imatinib 1 μM (footnote), mean ± standard deviation) was 4%.
